Results on 44 compounds are retold here after patent US20240217966A1, “PHARMACEUTICAL COMPOSITION CONTAINING GLP-1 RECEPTOR AGONIST HAVING FUSED RING” (Shionogi & Co., Ltd., priority 2021, published 2024).

pEC50: −log10 of the molar value.

The assay concerns the target T1, Human GLP-1 receptor (Homo sapiens, UniProt P43220).
T1 construct: expressed in transfected cells
In words: Measurement of GLP-1 receptor agonist activity (cAMP assay). The class given is cell-based. The settings on record: for Emax: CHO-K1, hGLP-1R/CHO-K1 cells, cAMP, 100% = human GLP-1 (7-36) at 2 nM, 0% = DMSO only, read-out: Emax(%); for pEC50: hGLP-1R/CHO-K1 cells, cAMP increase, 37° C. 1 hour. In outline: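 hGLP-1R/CHO-K1 cells in HBSS with 0.1% BSA, 20 mM HEPES, 0.1 mM IBMX and 0.2 mM RO20-1724 exposed to compound plus forskolin (400 μM stock) for 1 h at 37 °C. Intracellular cAMP read by HTRF (cAMP-d2/anti-cAMP cryptate, 1 h at room temperature).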

T1 sequence (P43220 24-463): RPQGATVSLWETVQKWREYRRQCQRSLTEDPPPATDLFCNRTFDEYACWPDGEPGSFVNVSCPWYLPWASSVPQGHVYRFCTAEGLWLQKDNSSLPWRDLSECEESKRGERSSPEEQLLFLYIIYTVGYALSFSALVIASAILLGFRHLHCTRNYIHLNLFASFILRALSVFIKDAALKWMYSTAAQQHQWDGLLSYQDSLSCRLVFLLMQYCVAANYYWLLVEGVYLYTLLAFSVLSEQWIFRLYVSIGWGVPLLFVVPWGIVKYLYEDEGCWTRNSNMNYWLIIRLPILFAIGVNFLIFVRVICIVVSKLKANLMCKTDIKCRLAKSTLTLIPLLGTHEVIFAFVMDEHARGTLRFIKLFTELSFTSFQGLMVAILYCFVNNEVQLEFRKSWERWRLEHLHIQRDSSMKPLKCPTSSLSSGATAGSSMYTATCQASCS

With `O=C(O)c1ccc2nc(CN3CCc4cc(C(F)(F)F)c(OCc5ccccc5)cc4C3)n(C[C@@H]3CCO3)c2c1` [Compound I-156], the Emax stood at 89% and the pEC50 was 7.43.
The matching figures for `N#Cc1cc(Cl)ccc1COc1cc2c(cc1C(F)(F)F)CCN(Cc1nc3ccc(C(=O)O)cc3n1C[C@@H]1CCO1)C2` [Compound I-157]: 109% and 8.37.
Taken in the same sequence, the figures for `O=C(O)c1ccc2nc(CN3CCc4cc(C(F)(F)F)c(OCc5c(F)cccc5Cl)cc4C3)n(C[C@@H]3CCO3)c2c1` [Compound I-158] were 94% and 7.79.
With `Cc1cc(F)cc(C)c1COc1cc2c(cc1C(F)(F)F)CCN(Cc1nc3ccc(C(=O)O)cc3n1C[C@@H]1CCO1)C2` [Compound I-159], the maximum response (Emax) amounted to 92.3% and the pEC50 is 7.88.
For `C[C@H]1c2cc(OCc3ccc(Cl)cc3)c(C(F)(F)F)cc2CCN1Cc1nc2ccc(C(=O)O)cc2n1C[C@@H]1CCO1` [Compound I-161], the Emax turned out to be 110% and the pEC50 is 8.89.
On to `Cc1ccc(COc2cc3c(cc2C(F)(F)F)CCN(Cc2nc4ccc(C(=O)O)cc4n2C[C@@H]2CCO2)[C@H]3C)cc1` [Compound I-162], for which the Emax came out at 106% and the pEC50 was 8.86.
Turning to `C[C@H]1c2cc(OCc3ccc(C4CC4)cc3)c(C(F)(F)F)cc2CCN1Cc1nc2ccc(C(=O)O)cc2n1C[C@@H]1CCO1` [Compound I-163], the Emax amounted to 131% and the negative logarithm of the EC50 (pEC50) was 7.97.
Turning to `COc1cc(Cl)ccc1COc1cc2c(cc1C(F)(F)F)CCN(Cc1nc3ccc(C(=O)O)cc3n1C[C@@H]1CCO1)[C@H]2C` [Compound I-164], the maximal response (Emax) was 104% and the pEC50 is 9.52.
Taken in the same sequence, the figures for `C[C@H]1c2cc(OCc3ccccc3Cl)c(C(F)(F)F)cc2CCN1Cc1nc2ccc(C(=O)O)cc2n1C[C@@H]1CCO1` [Compound I-165] were 103% and 8.56.
As for `C[C@H]1c2cc(OCc3ccc(F)cc3F)c(C(F)(F)F)cc2CCN1Cc1nc2ccc(C(=O)O)cc2n1C[C@@H]1CCO1` [Compound I-166], the Emax was 111% and the pEC50 was 8.91.
As for `C[C@H]1c2cc(OCc3ccc(Cl)cc3Cl)c(C(F)(F)F)cc2CCN1Cc1nc2ccc(C(=O)O)cc2n1C[C@@H]1CCO1` [Compound I-167], the Emax was determined as 102% and the pEC50 is 9.15.
Turning to `C[C@H]1c2cc(OCc3ccc(OC(F)F)cc3F)c(C(F)(F)F)cc2CCN1Cc1nc2ccc(C(=O)O)cc2n1C[C@@H]1CCO1` [Compound I-168], the Emax was 104% and the pEC50 is 8.65.
On to `C[C@H]1c2cc(OCc3cc(F)c(Cl)cc3F)c(C(F)(F)F)cc2CCN1Cc1nc2ccc(C(=O)O)cc2n1C[C@@H]1CCO1` [Compound I-169], for which the Emax is 101% and the pEC50 is 8.92.
In the case of `C[C@H]1c2cc(OCc3ccc(C#N)cc3F)c(C(F)(F)F)cc2CCN1Cc1nc2ccc(C(=O)O)cc2n1C[C@@H]1CCO1` [Compound I-170], the Emax was 120% and the pEC50 was 8.91.
Consider `COc1ccc(COc2cc3c(cc2C(F)(F)F)CCN(Cc2nc4ccc(C(=O)O)cc4n2C[C@@H]2CCO2)[C@H]3C)cc1` [Compound I-171], for which the Emax came out at 98.7% and the pEC50 was 8.63.
On to `C[C@H]1c2cc(OCc3ccc(Cl)cn3)c(C(F)(F)F)cc2CCN1Cc1nc2ccc(C(=O)O)cc2n1C[C@@H]1CCO1` [Compound I-172], for which the Emax was 113% and the pEC50 was 9.02.
With `Cc1csc(COc2cc3c(cc2C(F)(F)F)CCN(Cc2nc4ccc(C(=O)O)cc4n2C[C@@H]2CCO2)[C@H]3C)n1` [Compound I-173], the Emax amounted to 102% and the pEC50 was 8.64.
On to `C[C@H]1c2cc(OCc3ccc(Cl)cc3F)c(Cl)cc2CCN1Cc1nc2ccc(C(=O)O)cc2n1C[C@@H]1CCO1` [Compound I-174], for which the maximal effect (Emax) worked out at 109% and the negative-log EC50 (pEC50) is 8.80.
In the case of `COc1ccc(COc2cc3c(cc2C(F)(F)F)CCN(Cc2nc4ccc(C(=O)O)nc4n2C[C@@H]2CCO2)[C@H]3C)cc1` [Compound I-175], the Emax turned out to be 101% and the pEC50 is 8.45.
Take `C[C@H]1c2cc(OCc3ccc(Cl)cn3)c(C(F)(F)F)cc2CCN1Cc1nc2ccc(C(=O)O)nc2n1C[C@@H]1CCO1` [Compound I-176]: the Emax came to 98.3% and the pEC50 is 8.67.
Take `Cc1csc(COc2cc3c(cc2C(F)(F)F)CCN(Cc2nc4ccc(C(=O)O)nc4n2C[C@@H]2CCO2)[C@H]3C)n1` [Compound I-177]: the Emax came to 107% and the pEC50 is 8.51.
Turning to `C[C@H]1c2cc(OCc3ccc(Cl)cc3)c(C(F)(F)F)cc2CCN1Cc1nc2ccc(C(=O)O)nc2n1C[C@@H]1CCO1` [Compound I-178], the Emax came to 111% and the pEC50 is 8.71.
On to `Cc1ccc(COc2cc3c(cc2C(F)(F)F)CCN(Cc2nc4ccc(C(=O)O)nc4n2C[C@@H]2CCO2)[C@H]3C)cc1` [Compound I-179], for which the Emax amounted to 99% and the pEC50 is 8.73.
Taken in the same sequence, the figures for `C[C@H]1c2cc(OCc3ccc(C4CC4)cc3)c(C(F)(F)F)cc2CCN1Cc1nc2ccc(C(=O)O)nc2n1C[C@@H]1CCO1` [Compound I-180] were 97.3% and 8.05.
Consider `COc1cc(Cl)ccc1COc1cc2c(cc1C(F)(F)F)CCN(Cc1nc3ccc(C(=O)O)nc3n1C[C@@H]1CCO1)[C@H]2C` [Compound I-181], for which the maximum response (Emax) was found to be 116% and the pEC50 was 9.43.
Taken in the same sequence, the figures for `C[C@H]1c2cc(OCc3ccccc3Cl)c(C(F)(F)F)cc2CCN1Cc1nc2ccc(C(=O)O)nc2n1C[C@@H]1CCO1` [Compound I-182] were 126% and 8.48.
`C[C@H]1c2cc(OCc3ccc(F)cc3F)c(C(F)(F)F)cc2CCN1Cc1nc2ccc(C(=O)O)nc2n1C[C@@H]1CCO1` [Compound I-183]: the maximal effect (Emax) is 98% and the pEC50 is 8.60.
With `C[C@H]1c2cc(OCc3ccc(OC(F)F)cc3F)c(C(F)(F)F)cc2CCN1Cc1nc2ccc(C(=O)O)nc2n1C[C@@H]1CCO1` [Compound I-184], the Emax was found to be 98% and the pEC50 is 8.32.
On to `C[C@H]1c2cc(OCc3cc(F)c(Cl)cc3F)c(C(F)(F)F)cc2CCN1Cc1nc2ccc(C(=O)O)nc2n1C[C@@H]1CCO1` [Compound I-185], for which the Emax came out at 106% and the pEC50 is 8.66.
Taken in the same sequence, the figures for `C[C@H]1c2cc(OCc3ccc(C#N)cc3F)c(C(F)(F)F)cc2CCN1Cc1nc2ccc(C(=O)O)nc2n1C[C@@H]1CCO1` [Compound I-186] were 111% and 8.48.
As for `C[C@H]1c2cc(OCc3ccc(F)cc3)c(C(F)(F)F)cc2CCN1Cc1nc2ccc(C(=O)O)nc2n1C[C@@H]1CCO1` [Compound I-187], the Emax came out at 105% and the pEC50 is 8.38.
As to `C[C@H]1c2cc(OCc3c(F)cc(F)cc3F)c(C(F)(F)F)cc2CCN1Cc1nc2ccc(C(=O)O)nc2n1C[C@@H]1CCO1` [Compound I-188], the Emax was 90.3% and the pEC50 was 8.75.
The matching figures for `COc1cc(C(=O)O)cc2c1nc(CN1CCc3cc(C(F)(F)F)c(OCc4ccc(Cl)cc4F)cc3[C@@H]1C)n2C[C@@H]1CCO1` [Compound I-189]: 122% and 10.19.
Turning to `COc1ccc(COc2cc3c(cc2C(F)(F)F)CCN(Cc2nc4ccc(C(=O)O)c(F)c4n2C[C@@H]2CCO2)[C@H]3C)cc1` [Compound I-190], the maximal response (Emax) was determined as 109% and the pEC50 is 8.97.
For the compound `C[C@H]1c2cc(OCc3ccc(Cl)cn3)c(C(F)(F)F)cc2CCN1Cc1nc2ccc(C(=O)O)c(F)c2n1C[C@@H]1CCO1` [Compound I-191], the Emax was determined as 130% and the negative-log EC50 (pEC50) was 9.19.
Taken in the same sequence, the figures for `Cc1csc(COc2cc3c(cc2C(F)(F)F)CCN(Cc2nc4ccc(C(=O)O)c(F)c4n2C[C@@H]2CCO2)[C@H]3C)n1` [Compound I-192] were 123% and 8.92.
As for `C[C@H]1c2cc(OCc3ccc(Cl)cc3)c(C(F)(F)F)cc2CCN1Cc1nc2ccc(C(=O)O)c(F)c2n1C[C@@H]1CCO1` [Compound I-193], the Emax is 115% and the pEC50 was 9.14.
The matching figures for `Cc1ccc(COc2cc3c(cc2C(F)(F)F)CCN(Cc2nc4ccc(C(=O)O)c(F)c4n2C[C@@H]2CCO2)[C@H]3C)cc1` [Compound I-194]: 111% and 9.13.
With `C[C@H]1c2cc(OCc3ccc(C4CC4)cc3)c(C(F)(F)F)cc2CCN1Cc1nc2ccc(C(=O)O)c(F)c2n1C[C@@H]1CCO1` [Compound I-195], the Emax is 96.3% and the pEC50 was 8.48.
Consider `COc1cc(Cl)ccc1COc1cc2c(cc1C(F)(F)F)CCN(Cc1nc3ccc(C(=O)O)c(F)c3n1C[C@@H]1CCO1)[C@H]2C` [Compound I-196], for which the Emax was determined as 106% and the pEC50 was 9.87.
As for `C[C@H]1c2cc(OCc3ccccc3Cl)c(C(F)(F)F)cc2CCN1Cc1nc2ccc(C(=O)O)c(F)c2n1C[C@@H]1CCO1` [Compound I-197], the Emax was 119% and the negative logarithm of the EC50 (pEC50) is 8.88.
For the compound `C[C@H]1c2cc(OCc3ccc(F)cc3F)c(C(F)(F)F)cc2CCN1Cc1nc2ccc(C(=O)O)c(F)c2n1C[C@@H]1CCO1` [Compound I-198], the Emax was 128% and the pEC50 is 8.93.
For the compound `C[C@H]1c2cc(OCc3ccc(OC(F)F)cc3F)c(C(F)(F)F)cc2CCN1Cc1nc2ccc(C(=O)O)c(F)c2n1C[C@@H]1CCO1` [Compound I-199], the Emax was determined as 128% and the pEC50 is 9.07.
Regarding `C[C@H]1c2cc(OCc3cc(F)c(Cl)cc3F)c(C(F)(F)F)cc2CCN1Cc1nc2ccc(C(=O)O)c(F)c2n1C[C@@H]1CCO1` [Compound I-200], the Emax was determined as 102% and the pEC50 is 9.24.

As usually defined, the Emax is the greatest response seen or fitted, relative to the assay's reference. Usually pEC50 stands for −log10 of the EC50, conventionally taken in molar units.
